Measurements as given in article PMC11061149, “Protein mimetic 2D FAST rescues alpha synuclein aggregation mediated early and post disease Parkinson’s phenotypes” (Nature Communications, 2024).
Several values for one entry are separate records, joined by “and”; a condition that tells them apart may be missing. Identical values can stand only once.

Columns and labels:
[1] = system: NL5901 worms; assay: Motility assay of NL5901 worms (WMicroTracker ARENA); assay type: in vivo, C. elegans; conditions: for Motility of NL5901 worms + NS132: individual trials
Method: Briefly, all worm strains were bleached at the same time and the eggs were incubated on PLATE 1. On day two, the worms were divided into two batches. […] The liquid media for PLATE 4 A/B was prepared with 67.28% (v/v) of M9 buffer, 75 μM FUDR, 0.1% of 1 M magnesium sulfate (v/v), 0.1% of 1 M calcium chloride (v/v), 2.5% of 1 M potassium phosphate solution (pH 6, v/v), and 30% (v/v) of OP50 (0.5 OD600nm). […] To test the effect of each ligand on disease worm strains (NL5901 or UA196), there were four conditions were used in PLATE 4 A/B: […] The assay was started on day four using the WMicroTracker ARENA plate reader (Phylumtech, Santa Fe, Argentina) at 20 °C for 1 h per day over a 14-day period at intervals of 24 h. The WMicroTracker ARENA plate reader uses a large array of infrared light microbeams in each well of the plate to detect the interference caused by the movement of the worms. The output by the ARENA plate reader is an average of the overall movement of all worms present in each well, which is denoted as the motility of the worms in each well. […] After collecting the data each day, the PLATE 4 A/B was again placed on the shaker (100 rpm) at 20 °C in the incubator. The PLATE 4 A/B was on the on the shaker (100 rpm) at 20 °C in the incubator the whole duration of the experiment except only when the reading was collected on the WMicroTracker ARENA plate reader for 1 h.

[2] = system: UA196 worms; assay: Chemotaxis assay of UA196 worms; assay type: in vivo, C. elegans; conditions: 50 µM ligand, day 10, E. coli attractant vs ethanol repellent
Method: For chemotaxis assay, the Chemotaxis (CTX) media plates (2% Agar, 5 mM KH2PO4, 1 mM CaCl2, 1 mM MgSO4, 75 µM FUDR), referred to as PLATE 7, and CTX buffer (5 mM KH2PO4, 1 mM CaCl2, and 1 mM MgSO4) were prepared using previous protocols[24],[78],[85],[86]. The PLATE 7 (without ligand) were treated with ligand (50 µM, stock conc. = 10 mM in DMSO) that was dissolved in CTX buffer (total volume = 300 µL) and was spotted atop the CTX media plates at 20 °C, referred to as PLATE 8. For CTX assay, we prepared another plate referred to as PLATE 9, which was PLATE 7 divided into four equal quadrants and designated as A and C (diagonally opposite), B and D (diagonally opposite). […] The experiment on the WMicroTracker ARENA plate reader (Phylumtech, Santa Fe, Argentina) started within 1 h of the transfer of the worms at 20 °C. […] On day 3, a total of 50 worms were transferred to the center of the PLATE 9 using CTX buffer ( ~20 µL) and the number of worms were counted under an Olympus microscope (SZ-6145, Waltham, MA). […] The worm activity was monitored using the WMicroTracker ARENA plate reader (Phylumtech, Santa Fe, Argentina) at 20 °C for 2 h. […] For day 10, 50 worms (N2 or UA196) from PLATE 7 (without ligand) or PLATE 8 (with 50 µM ligand) were transferred to PLATE 9 using CTX buffer ( ~ 20 µL) and the number of worms were counted under an Olympus microscope (SZ-6145, Waltham, MA). […]

Compound: Cc1ccc(NC(=O)c2ccc(NC(=O)c3ccc([N+](=O)[O-])c(NCCc4c[nH]c5ccccc45)n3)c(NCC3CCCCC3)n2)c(OCC(=O)O)n1 [NS132]
- motility of NL5901 worms, in words ([1]; 50 μM ligand on day two and day four): increase in the motility
- Motility of NL5901 worms + NS132 ([1]; Day 4): 255 and 287 and 207 and 297
- Motility of NL5901 worms + NS132 ([1]; Day 5): 181 and 139 and 108 and 189
- Motility of NL5901 worms + NS132 ([1]; Day 6): 201 and 130 and 176 and 121
- Motility of NL5901 worms + NS132 ([1]; Day 7): 101 and 172 and 160 and 83
- Motility of NL5901 worms + NS132 ([1]; Day 8): 129 and 117 and 94 and 99
- Motility of NL5901 worms + NS132 ([1]; Day 9): 107 and 89 and 145 and 65
- Motility of NL5901 worms + NS132 ([1]; Day 10): 127 and 107 and 105 and 52
- Motility of NL5901 worms + NS132 ([1]; Day 11): 74 and 83 and 88 and 72
- Motility of NL5901 worms + NS132 ([1]; Day 12): 57 and 70 and 69 and 56
- Motility of NL5901 worms + NS132 ([1]; Day 13): 38 and 34 and 42 and 33
- Motility of NL5901 worms + NS132 ([1]; Day 14): 27 and 43 and 19 and 20
- behavioral deficits / chemotaxis index of UA196 worms, in words [2]: able to rescue behavioral deficits
